Test results from patent US8653031B2, “Process for the preparation of compositions of AT1 receptor antagonist and Angiotensin—(1-7)” (Universidade Federal de Minas Gerais, priority 2006, dated 2014).

Legend:
[1] = test system: spontaneously hypertensive rats (SHR); test: Antihypertensive test: blood pressure recorded by telemetry in SHR after oral administration; type: in vivo, rat
Protocol: Male, spontaneously hypertensive rats (SHR) were used, with initial age of 14-16 weeks, from the Centro de Bioterismo (CEBIO, Federal University of Minas Gerais). The animals were kept with free access to food and water and were submitted to a light-dark cycle (12 hours each).
After anesthesia with tribromoethanol (0.25 g/Kg body weight), trichotomy of the abdominal region and local asepsis was made. After adjustment of the surgical field, a median incision of 4 to 6 cm was performed in the abdomen with the implantation of the transducer catheter in the abdominal aorta. After surgery, a veterinary pentabiotic was administered (0.1 ml) via intramuscular route (i.m.). […]
Records of the cardiovascular parameters, average blood pressure and heart rate were obtained by a telemetry data acquisition system (Data Science International). This monitoring system consists of 4 basic elements: (A) a sensor catheter (model—TA11PA-C40) which was inserted into the animal's abdominal aorta for collection, processing and transmission of pulsatile blood pressure; (B) a receiving signal plate (RPC-1); (C) a muliplexor that received the signal from several receiving plates and sent them to (D) the data acquisition system itself, which collected, stored and analyzed the data by means of a specific software, ART-Gold v. […]
The acute cardiovascular effects of administering the LA compound were determined. […]

[2] = target: ACE (Homo sapiens, UniProt P12821); details: read-out: IC50 for ACE inhibition; cited from earlier work
Sequence of ACE (P12821 30-1306, species assumed): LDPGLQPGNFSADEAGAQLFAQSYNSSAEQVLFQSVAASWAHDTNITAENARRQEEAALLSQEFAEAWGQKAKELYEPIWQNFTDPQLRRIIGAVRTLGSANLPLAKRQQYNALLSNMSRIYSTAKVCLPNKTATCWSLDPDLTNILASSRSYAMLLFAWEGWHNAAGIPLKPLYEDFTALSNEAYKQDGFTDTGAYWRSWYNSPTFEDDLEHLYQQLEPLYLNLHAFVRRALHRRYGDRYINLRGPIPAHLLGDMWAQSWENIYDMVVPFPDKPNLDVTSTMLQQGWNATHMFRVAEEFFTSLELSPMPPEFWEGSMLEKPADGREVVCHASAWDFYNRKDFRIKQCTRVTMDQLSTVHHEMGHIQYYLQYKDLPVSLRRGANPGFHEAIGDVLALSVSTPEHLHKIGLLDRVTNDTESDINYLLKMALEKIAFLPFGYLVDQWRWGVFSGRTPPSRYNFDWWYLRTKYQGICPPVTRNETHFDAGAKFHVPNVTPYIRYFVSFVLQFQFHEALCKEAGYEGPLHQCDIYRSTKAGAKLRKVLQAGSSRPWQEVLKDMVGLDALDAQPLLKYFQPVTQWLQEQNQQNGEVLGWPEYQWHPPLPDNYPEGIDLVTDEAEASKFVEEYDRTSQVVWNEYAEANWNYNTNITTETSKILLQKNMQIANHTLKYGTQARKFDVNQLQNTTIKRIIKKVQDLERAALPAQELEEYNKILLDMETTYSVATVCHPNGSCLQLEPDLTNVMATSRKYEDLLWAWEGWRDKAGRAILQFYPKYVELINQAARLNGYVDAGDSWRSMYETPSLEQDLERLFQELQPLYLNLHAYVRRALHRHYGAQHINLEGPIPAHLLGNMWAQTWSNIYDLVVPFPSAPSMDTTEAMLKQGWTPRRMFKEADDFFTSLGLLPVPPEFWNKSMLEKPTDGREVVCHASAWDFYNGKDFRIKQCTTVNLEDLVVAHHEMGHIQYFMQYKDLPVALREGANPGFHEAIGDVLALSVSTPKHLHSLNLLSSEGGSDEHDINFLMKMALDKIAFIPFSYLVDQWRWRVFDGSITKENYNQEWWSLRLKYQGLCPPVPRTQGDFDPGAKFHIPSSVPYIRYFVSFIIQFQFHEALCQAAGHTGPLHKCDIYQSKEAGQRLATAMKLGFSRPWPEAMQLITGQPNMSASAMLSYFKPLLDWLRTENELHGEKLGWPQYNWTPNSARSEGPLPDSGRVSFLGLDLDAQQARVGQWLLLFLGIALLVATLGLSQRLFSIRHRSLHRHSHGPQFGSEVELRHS

## CCCCc1nc(Cl)c(CO)n1Cc1ccc(-c2ccccc2-c2nn[nH]n2)cc1 [losartan]
[1]; n=2, single oral dose equivalent to 1 mg Kg/day of losartan, after 5 hours (maximum for test compound)
  reduction in the average blood pressure: −10 mmHg
[1]; single oral dose equivalent to 1 mg Kg/day of losartan
  duration of the blood pressure lowering effect: 12 h

## DRVYIHP [Ang-(1-7), Asp-Arg-Val-Tyr-Ile-His-Pro, heptapeptide of the renin-angiotensin system]
[2]
  IC50: ~1000 nM
